Results: patent US10030020B2, “Spirocycle compounds and methods of making and using same” (Abide Therapeutics, Inc., priority 2016, dated 2018)

Columns and labels:
ABHD6 [1] = molecular target: T1, ABHD6 (Mus musculus (Mouse), UniProt Q8R2Y0); assay: Mouse brain proteomes from inhibitor treated mice (oral gavage, sacrificed 4 h after administration, ABPP analysis), ABHD6; type: in vivo, mouse (C57Bl/6J); conditions: 5 mg/kg oral gavage
How it was run: (§1)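 Percent inhibition in brain tissue measured by ABPP 4 h after a single oral gavage dose (5 mg/kg) to wild-type C57Bl/6J mice; vehicle was, for example, PEG400/Ethanol/PBS at 7/2/1.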

FAAH [2] = molecular target: T2, FAAH (Mus musculus (Mouse), UniProt O08914); assay: In vitro competitive activity-based protein profiling (mouse brain membrane fraction or cell lysates), FAAH band; type: biochemical; conditions: mouse proteome; for inhibition at 1 µM: read-out: FAAH % Inh 1 μM (mouse); for IC50: competitive ABPP
How it was run: (§2)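 Residual hydrolase activity was measured as gel band fluorescence after FP-Rh labelling (30 min, 37° C) of proteomes pretreated 30 min at 37° C with inhibitor.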

MAGL [3] = molecular target: T3, MAGL (Mus musculus (Mouse), UniProt O35678); assay: Mouse brain proteomes from inhibitor treated mice (oral gavage, sacrificed 4 h after administration, ABPP analysis); type: in vivo, mouse (C57Bl/6J); conditions: 5 mg/kg oral gavage
How it was run: as §1

ABHD6 [4] = molecular target: T1, ABHD6; assay: In vitro competitive activity-based protein profiling (mouse brain membrane fraction or cell lysates), ABHD6 band; type: biochemical; conditions: mouse proteome; for inhibition at 1 µM: read-out: ABHD6 % Inh 1 μM (mouse); for IC50: competitive ABPP
How it was run: as §2

FAAH [5] = molecular target: T2, FAAH; assay: Mouse brain proteomes from inhibitor treated mice (oral gavage, sacrificed 4 h after administration, ABPP analysis), FAAH; type: in vivo, mouse (C57Bl/6J); conditions: 5 mg/kg oral gavage
How it was run: as §1

MAGL [6] = molecular target: T3, MAGL; assay: In vitro competitive activity-based protein profiling (mouse brain membrane fraction or cell lysates), MAGL band; type: biochemical; conditions: mouse proteome; for inhibition at 1 µM: read-out: MAGL % Inh 1 μM (mouse); for IC50: competitive ABPP
Protocol: In Vitro Competitive Activity-Based Protein Profiling.
Proteomes (mouse brain membrane fraction or cell lysates) (50 μL, 1.0 mg/mL total protein concentration) were preincubated with varying concentrations of inhibitors at 37° C. After 30 min, FP—Rh (1.0 μL, 50 μM in DMSO) was added and the mixture was incubated for another 30 min at 37° C. Reactions were quenched with SDS loading buffer (50 μL-4×) and run on SDS-PAGE.

T3 sequence (O35678 whole entry): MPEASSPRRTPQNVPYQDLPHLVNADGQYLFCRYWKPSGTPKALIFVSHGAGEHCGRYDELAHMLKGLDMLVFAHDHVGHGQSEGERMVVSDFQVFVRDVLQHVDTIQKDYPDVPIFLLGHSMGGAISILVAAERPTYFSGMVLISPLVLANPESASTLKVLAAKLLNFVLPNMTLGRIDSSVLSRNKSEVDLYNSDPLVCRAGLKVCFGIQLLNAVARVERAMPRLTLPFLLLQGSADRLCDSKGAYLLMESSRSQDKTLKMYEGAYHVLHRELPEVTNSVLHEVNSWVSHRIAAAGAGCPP
T1 sequence (Q8R2Y0 whole entry): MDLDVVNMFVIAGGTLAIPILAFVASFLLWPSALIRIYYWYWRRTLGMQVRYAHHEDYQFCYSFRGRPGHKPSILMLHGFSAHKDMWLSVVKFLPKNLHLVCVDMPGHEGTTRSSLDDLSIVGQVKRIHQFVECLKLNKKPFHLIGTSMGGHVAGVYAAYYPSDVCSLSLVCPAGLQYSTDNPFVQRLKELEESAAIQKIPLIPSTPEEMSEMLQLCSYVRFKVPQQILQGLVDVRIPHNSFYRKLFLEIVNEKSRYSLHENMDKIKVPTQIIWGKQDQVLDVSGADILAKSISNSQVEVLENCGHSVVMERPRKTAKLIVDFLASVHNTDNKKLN
T2 sequence (O08914 whole entry): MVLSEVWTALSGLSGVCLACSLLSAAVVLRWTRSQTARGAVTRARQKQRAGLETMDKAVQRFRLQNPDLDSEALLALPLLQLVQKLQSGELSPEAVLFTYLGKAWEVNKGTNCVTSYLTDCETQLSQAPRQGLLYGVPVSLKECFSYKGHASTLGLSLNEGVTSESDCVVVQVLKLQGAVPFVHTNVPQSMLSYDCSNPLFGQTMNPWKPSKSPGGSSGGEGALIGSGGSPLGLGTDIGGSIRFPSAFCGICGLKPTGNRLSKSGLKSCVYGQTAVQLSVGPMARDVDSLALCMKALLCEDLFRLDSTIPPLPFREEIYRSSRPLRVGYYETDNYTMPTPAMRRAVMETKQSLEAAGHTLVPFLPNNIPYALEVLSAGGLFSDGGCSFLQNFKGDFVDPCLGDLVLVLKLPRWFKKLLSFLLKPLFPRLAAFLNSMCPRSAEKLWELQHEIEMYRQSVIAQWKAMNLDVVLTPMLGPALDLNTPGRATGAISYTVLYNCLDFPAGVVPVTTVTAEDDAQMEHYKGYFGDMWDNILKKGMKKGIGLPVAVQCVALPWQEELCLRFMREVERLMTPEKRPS

CC(=O)N1CCN(c2cc(Cl)ccc2CN2CCCC23CCN(C(=O)OC(C(F)(F)F)C(F)(F)F)CC3)CC1 [Example 99, 1,1,1,3,3,3-Hexafluoropropan-2-yl 1-(2-(4-acetylpiperazin-1-yl)-4-chlorobenzyl)-1,8-diazaspiro[4.5]decane-8-carboxylate]
ABHD6 % Inh 5 mg/kg (mouse) (ABHD6 [1]): # (# is <25%)
inhibition at 1 µM (FAAH [2]): < 25%
IC50 (FAAH [2]): > 1000 nM
MAGL % Inh 5 mg/kg (mouse) (MAGL [3]): ### (### is ≥75%)
inhibition at 1 µM (ABHD6 [4]): < 25%
IC50 (ABHD6 [4]): > 1000 nM
FAAH % Inh 5 mg/kg (mouse) (FAAH [5]): # (# is <25%)
inhibition at 1 µM (MAGL [6]): > 75%
IC50 (MAGL [6]): < 100 nM

CS(=O)(=O)N1CCN(c2cc(Cl)ccc2CN2CCCC23CCN(C(=O)OC(C(F)(F)F)C(F)(F)F)CC3)CC1 [Example 100, 1,1,1,3,3,3-Hexafluoropropan-2-yl 1-(4-chloro-2-(4-(methylsulfonyl)piperazin-1-yl)benzyl)-1,8-diazaspiro[4.5]decane-8-carboxylate]
ABHD6 % Inh 5 mg/kg (mouse) (ABHD6 [1]): # (# is <25%)
inhibition at 1 µM (FAAH [2]): < 25%
IC50 (FAAH [2]): > 1000 nM
MAGL % Inh 5 mg/kg (mouse) (MAGL [3]): ### (### is ≥75%)
inhibition at 1 µM (ABHD6 [4]): < 25%
IC50 (ABHD6 [4]): > 1000 nM
FAAH % Inh 5 mg/kg (mouse) (FAAH [5]): # (# is <25%)
inhibition at 1 µM (MAGL [6]): > 75%
IC50 (MAGL [6]): < 100 nM

O=C(OC(C(F)(F)F)C(F)(F)F)N1CCC2(CCCN2Cc2ccc(Cl)cc2N2CCC(F)(F)CC2)CC1 [Example 101, 1,1,1,3,3,3-Hexafluoropropan-2-yl 1-(4-chloro-2-(4,4-difluoropiperidin-1-yl)benzyl)-1,8-diazaspiro[4.5]decane-8-carboxylate]
ABHD6 % Inh 5 mg/kg (mouse) (ABHD6 [1]): # (# is <25%)
inhibition at 1 µM (FAAH [2]): < 25%
IC50 (FAAH [2]): > 1000 nM
MAGL % Inh 5 mg/kg (mouse) (MAGL [3]): ### (### is ≥75%)
inhibition at 1 µM (ABHD6 [4]): < 25%
IC50 (ABHD6 [4]): > 1000 nM
FAAH % Inh 5 mg/kg (mouse) (FAAH [5]): # (# is <25%)
inhibition at 1 µM (MAGL [6]): > 75%
IC50 (MAGL [6]): < 100 nM

O=C(OC(C(F)(F)F)C(F)(F)F)N1CCC2(CCCN2Cc2ccc(Cl)cc2N2CCC(F)CC2)CC1 [Example 102, 1,1,1,3,3,3-Hexafluoropropan-2-yl 1-(4-chloro-2-(4-fluoropiperidin-1-yl)benzyl)-1,8-diazaspiro[4.5]decane-8-carboxylate]
ABHD6 % Inh 5 mg/kg (mouse) (ABHD6 [1]): # (# is <25%)
inhibition at 1 µM (FAAH [2]): < 25%
IC50 (FAAH [2]): > 1000 nM
MAGL % Inh 5 mg/kg (mouse) (MAGL [3]): ### (### is ≥75%)
inhibition at 1 µM (ABHD6 [4]): < 25%
IC50 (ABHD6 [4]): > 1000 nM
FAAH % Inh 5 mg/kg (mouse) (FAAH [5]): # (# is <25%)
inhibition at 1 µM (MAGL [6]): > 75%
IC50 (MAGL [6]): < 100 nM

CC(=O)NC1CCN(c2cc(Cl)ccc2CN2CCCC23CCN(C(=O)OC(C(F)(F)F)C(F)(F)F)CC3)CC1 [Example 104, 1,1,1,3,3,3-Hexafluoropropan-2-yl 1-(2-(4-acetamidopiperidin-1-yl)-4-chlorobenzyl)-1,8-diazaspiro[4.5]decane-8-carboxylate]
ABHD6 % Inh 5 mg/kg (mouse) (ABHD6 [1]): # (# is <25%)
inhibition at 1 µM (FAAH [2]): 25 to 75%
IC50 (FAAH [2]): > 1000 nM
MAGL % Inh 5 mg/kg (mouse) (MAGL [3]): ## (## is equal to or greater than 25% but less than 75%)
inhibition at 1 µM (ABHD6 [4]): < 25%
IC50 (ABHD6 [4]): > 1000 nM
FAAH % Inh 5 mg/kg (mouse) (FAAH [5]): # (# is <25%)
inhibition at 1 µM (MAGL [6]): > 75%
IC50 (MAGL [6]): < 100 nM

CS(=O)(=O)NC1CCN(c2cc(Cl)ccc2CN2CCCC23CCN(C(=O)OC(C(F)(F)F)C(F)(F)F)CC3)CC1 [Example 105, 1,1,1,3,3,3-Hexafluoropropan-2-yl 1-(4-chloro-2-(4-(methylsulfonamido)piperidin-1-yl)benzyl)-1,8-diazaspiro[4.5]decane-8-carboxylate]
ABHD6 % Inh 5 mg/kg (mouse) (ABHD6 [1]): # (# is <25%)
inhibition at 1 µM (FAAH [2]): < 25%
IC50 (FAAH [2]): > 1000 nM
MAGL % Inh 5 mg/kg (mouse) (MAGL [3]): # (# is <25%)
inhibition at 1 µM (ABHD6 [4]): < 25%
IC50 (ABHD6 [4]): > 1000 nM
FAAH % Inh 5 mg/kg (mouse) (FAAH [5]): # (# is <25%)
inhibition at 1 µM (MAGL [6]): > 75%
IC50 (MAGL [6]): < 100 nM

O=C(OC(C(F)(F)F)C(F)(F)F)N1CCC2(CCCN2Cc2ccc(Cl)cc2N2CCC2)CC1 [Example 107, 1,1,1,3,3,3-Hexafluoropropan-2-yl 1-(2-(azetidin-1-yl)-4-chlorobenzyl)-1,8-diazaspiro[4.5]decane-8-carboxylate]
ABHD6 % Inh 5 mg/kg (mouse) (ABHD6 [1]): # (# is <25%)
inhibition at 1 µM (FAAH [2]): < 25%
IC50 (FAAH [2]): > 1000 nM
MAGL % Inh 5 mg/kg (mouse) (MAGL [3]): ### (### is ≥75%)
inhibition at 1 µM (ABHD6 [4]): < 25%
IC50 (ABHD6 [4]): > 1000 nM
FAAH % Inh 5 mg/kg (mouse) (FAAH [5]): ## (## is equal to or greater than 25% but less than 75%)
inhibition at 1 µM (MAGL [6]): > 75%
IC50 (MAGL [6]): < 100 nM

O=C(OC(C(F)(F)F)C(F)(F)F)N1CCC2(CCCN2Cc2ccc(Cl)cc2N2CC3COCC3C2)CC1 (stereo not drawn) [Example 108, 1,1,1,3,3,3-Hexafluoropropan-2-yl 1-(4-chloro-2-(tetrahydro-1H-furo[3,4-c]pyrrol-5(3H)-yl)benzyl)-1,8-diazaspiro[4.5]decane-8-carboxylate]
ABHD6 % Inh 5 mg/kg (mouse) (ABHD6 [1]): # (# is <25%)
inhibition at 1 µM (FAAH [2]): < 25%
IC50 (FAAH [2]): > 1000 nM
MAGL % Inh 5 mg/kg (mouse) (MAGL [3]): ### (### is ≥75%)
inhibition at 1 µM (ABHD6 [4]): < 25%
IC50 (ABHD6 [4]): > 1000 nM
FAAH % Inh 5 mg/kg (mouse) (FAAH [5]): # (# is <25%)
inhibition at 1 µM (MAGL [6]): > 75%
IC50 (MAGL [6]): < 100 nM

Cc1cc(CN2CCCC23CCN(C(=O)OC(C(F)(F)F)C(F)(F)F)CC3)ccc1Cl [Example 124, 1,1,1,3,3,3-Hexafluoropropan-2-yl 1-(4-chloro-3-methylbenzyl)-1,8-diazaspiro[4.5]decane-8-carboxylate]
ABHD6 % Inh 5 mg/kg (mouse) (ABHD6 [1]): # (# is <25%)
inhibition at 1 µM (FAAH [2]): < 25%
IC50 (FAAH [2]): > 1000 nM
MAGL % Inh 5 mg/kg (mouse) (MAGL [3]): ### (### is ≥75%)
inhibition at 1 µM (ABHD6 [4]): < 25%
IC50 (ABHD6 [4]): > 1000 nM
FAAH % Inh 5 mg/kg (mouse) (FAAH [5]): # (# is <25%)
inhibition at 1 µM (MAGL [6]): > 75%
IC50 (MAGL [6]): < 100 nM

Cc1ccc(CN2CCCC23CCN(C(=O)OC(C(F)(F)F)C(F)(F)F)CC3)cc1Cl [Example 125, 1,1,1,3,3,3-Hexafluoropropan-2-yl 1-(3-chloro-4-methylbenzyl)-1,8-diazaspiro[4.5]decane-8-carboxylate]
ABHD6 % Inh 5 mg/kg (mouse) (ABHD6 [1]): # (# is <25%)
inhibition at 1 µM (FAAH [2]): < 25%
IC50 (FAAH [2]): > 1000 nM
MAGL % Inh 5 mg/kg (mouse) (MAGL [3]): ### (### is ≥75%)
inhibition at 1 µM (ABHD6 [4]): < 25%
IC50 (ABHD6 [4]): > 1000 nM
FAAH % Inh 5 mg/kg (mouse) (FAAH [5]): # (# is <25%)
inhibition at 1 µM (MAGL [6]): > 75%
IC50 (MAGL [6]): < 100 nM

O=C(OC(C(F)(F)F)C(F)(F)F)N1CCC2(CCCN2Cc2ccc(N3CCCC3)c(Cl)c2)CC1 [Example 128, 1,1,1,3,3,3-Hexafluoropropan-2-yl 1-(3-chloro-4-(pyrrolidin-1-yl)benzyl)-1,8-diazaspiro[4.5]decane-8-carboxylate]
ABHD6 % Inh 5 mg/kg (mouse) (ABHD6 [1]): # (# is <25%)
inhibition at 1 µM (FAAH [2]): < 25%
IC50 (FAAH [2]): > 1000 nM
MAGL % Inh 5 mg/kg (mouse) (MAGL [3]): ### (### is ≥75%)
inhibition at 1 µM (ABHD6 [4]): < 25%
IC50 (ABHD6 [4]): > 1000 nM
FAAH % Inh 5 mg/kg (mouse) (FAAH [5]): # (# is <25%)
inhibition at 1 µM (MAGL [6]): > 75%
IC50 (MAGL [6]): < 100 nM

O=C(OC(C(F)(F)F)C(F)(F)F)N1CCC2(CCCN2Cc2ccc(N3CCOCC3)c(C(F)(F)F)c2)CC1 [Example 129, 1,1,1,3,3,3-Hexafluoropropan-2-yl 1-(4-morpholino-3-(trifluoromethyl)benzyl)-1,8-diazaspiro[4.5]decane-8-carboxylate]
ABHD6 % Inh 5 mg/kg (mouse) (ABHD6 [1]): # (# is <25%)
inhibition at 1 µM (FAAH [2]): < 25%
IC50 (FAAH [2]): > 1000 nM
MAGL % Inh 5 mg/kg (mouse) (MAGL [3]): ### (### is ≥75%)
inhibition at 1 µM (ABHD6 [4]): 25 to 75%
IC50 (ABHD6 [4]): > 1000 nM
FAAH % Inh 5 mg/kg (mouse) (FAAH [5]): # (# is <25%)
inhibition at 1 µM (MAGL [6]): > 75%
IC50 (MAGL [6]): < 100 nM
